Values joined by “and” are separate entries in the source; they are usually repeats but may differ in a detail not shown here. Identical values can stand only once. Marks after values point to notes of the source that are not given here. Where no end group is shown, it is not given here.
Legend:
[1] = tested on: Head and neck cancer tumor cells; assay: MTT proliferation inhibition, head and neck cancer cells; type: cell-based, human; design: concentration or dose not given beside the values; conditions: 48 h
Method in brief: (§1)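 Tumour cells plated at 2×10^4 cells/mL, attached overnight, then exposed to dilutions of mPEG-HM-1 for 48 h at 37 °C, 5% CO2. MTT added 4 h, formazan dissolved in DMSO, absorbance 570/630 nm; growth inhibition = 1 − treated/untreated, three independent repeats, mean±SD.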

Brain tumor cells = assay: MTT proliferation inhibition, brain tumor cells; type: cell-based, human; design: concentration or dose not given beside the values; conditions: 48 h
Method in brief: as §1

[2] = tested on: Breast cancer tumor cells; assay: MTT proliferation inhibition, breast cancer cells; type: cell-based, human; design: concentration or dose not given beside the values; conditions: 48 h
Method in brief: as §1

[3] = tested on: Kidney cancer tumor cells; assay: MTT proliferation inhibition, kidney cancer cells; type: cell-based, human; design: concentration or dose not given beside the values; conditions: 48 h
Method in brief: as §1

[4] = tested on: Ovarian cancer tumor cells; assay: MTT proliferation inhibition, ovarian cancer cells; type: cell-based, human; design: concentration or dose not given beside the values; conditions: 48 h
Method in brief: as §1

[5] = tested on: Prostate cancer tumor cells; assay: MTT proliferation inhibition, prostate cancer cells; type: cell-based, human; design: concentration or dose not given beside the values; conditions: 48 h
Method in brief: as §1

mouse spleen lymphocytes = assay: ConA-stimulated mouse spleen lymphocyte proliferation (MTT); type: cell-based; conditions: ConA 5 μg/mL, 48 h
Method in brief: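 Proliferation read by MTT (4 h), DMSO solubilisation and OD 570 nm, 5 replicates, after 48 h culture at 37° C. Cells were erythrocyte-depleted splenocytes at 5×10^6/mL in RPMI 1640 plus 10% calf serum; groups were blank, ConA and dexamethasone 0.02 mg/mL.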

[6] = tested on: xylene-induced ear swelling in Kunming mice; assay: Xylene-induced ear swelling in mice; type: in vivo, mouse; conditions: for Inhibition rate: ear swelling vs control
Method in brief: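 Kunming mice were dosed once daily for 5 days (aspirin 200 mg/kg as positive control, saline as blank). One hour after the last dose, xylene was applied to the right ear, with the left ear as untreated reference. Ear punches were weighed 2 h later; swelling degree = right − left weight, rate = degree/left weight ×100%.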

[7] = tested on: choroidal neovascularization in BN rats; assay: Laser-induced choroidal neovascularization in BN rats (FFA); type: in vivo, rat; conditions: for incidence of CNV: BN rats, 28 days after administration, intravitreal once daily for 1 week
Description: 6-8 weeks old male BN rats were anesthetized with 846 compound anesthetic 0.5 mL/kg administered intraperitoneally. The eye drops of compound tropamide eyes were used 5 minutes before laser photocoagulation, and the pupils of both eyes were fully scattered. Fix animals, with the aid of −53.00 D contact lens, around the optic disc and along the same distance from the optic disc 2PD, the laser beam photocoagulation were performed to make a total of 8 photo-condensation spots, with laser wavelength of 647.1 nm, power of 350 mW, photocoagulation spot diameter and time were 50 μm and 0.05 s, respectively. Immediately after photocoagulation, fundus photography was performed. FFA, histopathology and transmission electron microscopy were performed at 3, 7, 14, 21, and 28 days after photocoagulation.
It was confirmed by fundus photography and FFA examination that the fluorescein leakage of photocoagulation peaked on the 21st day after photocoagulation, and histopathological examination was performed at the same time. […] A large number of neovascular vessels were seen, and red blood cells were visible in the lumen. Microscopically, capillary cells in the choroidal melanocytes were cohesively altered and endothelial cells aggregated.
Rats that were successfully modeled were randomly divided into groups of 5 rats each. They were labeled as negative control group, mPEG-SC-HM-1 treatment group, mPEG2-NHS-HM-1 treatment group, mPEG-ALD-HM-1 treatment group and mPEG-bALD-HM-1 treatment group, respectively. Saline, mPEG-HM-1 (see Table 53 for dosing) was administered intravitreally, once daily for 1 week. FFA examinations were performed 3 days, 7 days, 14 days, and 28 days after administration of the modified peptides.

[8] = 10 mg/kg once daily for 5 days, 2 h after xylene
[9] = 20 mg/kg once daily for 5 days, 2 h after xylene
[10] = 40 mg/kg once daily for 5 days, 2 h after xylene
[11] = Day 3 after administration, 50 μg intravitreally once daily for 1 week (Table 53)
[12] = Day 3 after administration, 50 μg intravitreally once daily for 1 week (Table 53), total spots 290-296 by table
[13] = Day 7, 50 μg intravitreally once daily for 1 week (Table 53)
[14] = Day 7, 50 μg intravitreally once daily for 1 week (Table 53), total spots 182-188 by table
[15] = Day 14, 50 μg intravitreally once daily for 1 week (Table 53)
[16] = Day 14, 50 μg intravitreally once daily for 1 week (Table 53), total spots 132-138 by table
[17] = Day 28, 50 μg intravitreally once daily for 1 week (Table 53)
[18] = Day 28, 50 μg intravitreally once daily for 1 week (Table 53), total spots 67-71 by table

Row | Substance | rate of growth inhibition [1] [%] | rate of growth inhibition (Brain tumor cells) [%] | rate of growth inhibition [2] [%] | rate of growth inhibition [3] [%] | rate of growth inhibition [4] [%] | rate of growth inhibition [5] [%] | A570 nm/A630 nm (mouse spleen lymphocytes; 10 μg/mL) | Inhibition Rate of spleen lymphocyte proliferation (mouse spleen lymphocytes; 10 μg/mL) [%] | A570 nm/A630 nm (mouse spleen lymphocytes; 20 μg/mL) | Inhibition Rate of spleen lymphocyte proliferation (mouse spleen lymphocytes; 20 μg/mL) [%] | A570 nm/A630 nm (mouse spleen lymphocytes; 40 μg/mL) | Inhibition Rate of spleen lymphocyte proliferation (mouse spleen lymphocytes; 40 μg/mL) [%] | Swelling [6, 8] | Inhibition rate ([6]; 10 mg/kg once daily for 5 days) [%] | Swelling [6, 9] | Inhibition rate ([6]; 20 mg/kg once daily for 5 days) [%] | Swelling [6, 10] | Inhibition rate ([6]; 40 mg/kg once daily for 5 days) [%] | incidence of CNV [7] | CNV Incidence rate [7, 11] [%] | further results
1 | mPEG-ALD10k-Arg-Gly-Ala-Asp-Arg-Ala-Gly-Gly-Gly-Gly-Arg-Gly-Asp ({mPEG‑ALD 10 kDa}-RGADRAGGGGRGD) [mPEG-ALD10k-HM-1] | 48.93 ± 12.14 | 58.25 ± 14.02 | 70.19 ± 17.07 | 75.23 ± 19.11 | 85.73 ± 22.17 | 51.09 ± 11.78 | 0.6116 ± 0.1046 | 10.96 | 0.5352 ± 0.1022 | 22.08 | 0.4651 ± 0.1086 | 32.29 | 5.36 ± 0.12 mg | 12.36 | 4.67 ± 0.79* mg | 23.67 | 3.58 ± 0.33** mg | 41.58 | 39.44% and 39.13% | 48.62 | leakage Spots # [7, 12]: 141; CNV Incidence rate [7, 13]: 46.15%; leakage Spots # [7, 14]: 84; CNV Incidence rate [7, 15]: 41.67%; leakage Spots # [7, 16]: 55; CNV Incidence rate [7, 17]: 39.44%; leakage Spots # [7, 18]: 28
2 | mPEG-SC5k-Arg-Gly-Ala-Asp-Arg-Ala-Gly-Gly-Gly-Gly-Arg-Gly-Asp ({mPEG‑SC 5 kDa}-RGADRAGGGGRGD) [mPEG-SC5k-HM-1] | 40.27 ± 11.36 | 42.18 ± 12.29 | 48.13 ± 12.17 | 51.07 ± 12.45 | 60.81 ± 20.27 | 38.37 ± 15.61 | 0.5480 ± 0.1081 | 20.54 | 0.4954 ± 0.1219 | 28.16 |  |  | 4.90 ± 0.35* mg | 20.13 | 4.17 ± 0.19** mg | 32.10 |  |  |  |  | A570 nm/A630 nm (mouse spleen lymphocytes; 5 μg/mL): 0.6253 ± 0.0947; Inhibition Rate of spleen lymphocyte proliferation (mouse spleen lymphocytes; 5 μg/mL): 9.32%; Inhibition rate ([6]; 5 mg/kg once daily for 5 days): 9.57%; Swelling ([6]; 5 mg/kg once daily for 5 days, right minus left ear piece weight 2 h after xylene): 5.55 ± 0.21 mg; CNV Incidence rate ([7]; Day 3 after administration, 25 μg intravitreally once daily for 1 week (Table 53)): 54.73%; leakage Spots # ([7]; Day 3 after administration, 25 μg intravitreally once daily for 1 week (Table 53), total spots 290-296 by table): 162; CNV Incidence rate ([7]; Day 7, 25 μg intravitreally once daily for 1 week (Table 53)): 53.19%; leakage Spots # ([7]; Day 7, 25 μg intravitreally once daily for 1 week (Table 53), total spots 182-188 by table): 100; CNV Incidence rate ([7]; Day 14, 25 μg intravitreally once daily for 1 week (Table 53)): 48.15%; leakage Spots # ([7]; Day 14, 25 μg intravitreally once daily for 1 week (Table 53), total spots 132-138 by table): 65; CNV Incidence rate ([7]; Day 28, 25 μg intravitreally once daily for 1 week (Table 53)): 47.76%; leakage Spots # ([7]; Day 28, 25 μg intravitreally once daily for 1 week (Table 53), total spots 67-71 by table): 32
3 | mPEG2-NHS20k-Arg-Gly-Ala-Asp-Arg-Ala-Gly-Gly-Gly-Gly-Arg-Gly-Asp ({mPEG2‑NHS 20 kDa}-RGADRAGGGGRGD) [mPEG2-NHS20k-HM-1] | 46.18 ± 11.22 | 45.51 ± 10.15 | 52.68 ± 17.25 | 55.20 ± 15.43 | 63.55 ± 19.60 | 47.75 ± 10.14 |  |  | 0.6082 ± 0.0990 | 12.16 | 0.4879 ± 0.1156 | 29.53 |  |  | 5.52 ± 0.16 mg | 10.65 | 4.80 ± 0.29* mg | 22.37 |  |  | A570 nm/A630 nm (mouse spleen lymphocytes; 80 μg/mL): 0.4375 ± 0.1095; Inhibition Rate of spleen lymphocyte proliferation (mouse spleen lymphocytes; 80 μg/mL): 36.82%; Swelling ([6]; 80 mg/kg once daily for 5 days, 2 h after xylene): 3.96 ± 0.22** mg; Inhibition rate ([6]; 80 mg/kg once daily for 5 days): 35.92%; CNV Incidence rate ([7]; Day 3 after administration, 100 μg intravitreally once daily for 1 week (Table 53)): 52.72%; leakage Spots # ([7]; Day 3 after administration, 100 μg intravitreally once daily for 1 week (Table 53), total spots 290-296 by table): 155; CNV Incidence rate ([7]; Day 7, 100 μg intravitreally once daily for 1 week (Table 53)): 52.20%; leakage Spots # ([7]; Day 7, 100 μg intravitreally once daily for 1 week (Table 53), total spots 182-188 by table): 95; CNV Incidence rate ([7]; Day 14, 100 μg intravitreally once daily for 1 week (Table 53)): 45.99%; leakage Spots # ([7]; Day 14, 100 μg intravitreally once daily for 1 week (Table 53), total spots 132-138 by table): 63; CNV Incidence rate ([7]; Day 28, 100 μg intravitreally once daily for 1 week (Table 53)): 42.65%; leakage Spots # ([7]; Day 28, 100 μg intravitreally once daily for 1 week (Table 53), total spots 67-71 by table): 29
4 | mPEG-SC10k-Arg-Gly-Ala-Asp-Arg-Ala-Gly-Gly-Gly-Gly-Arg-Gly-Asp ({mPEG‑SC 10 kDa}-RGADRAGGGGRGD) [mPEG-SC10k-HM-1] | 45.61 ± 11.12 | 50.21 ± 12.19 | 50.16 ± 13.27 | 60.07 ± 14.24 | 65.89 ± 23.37 | 45.39 ± 12.63 | 0.6234 ± 0.0976 | 9.60 | 0.5488 ± 0.1052 | 20.42 | 0.4788 ± 0.1282 | 30.57 | 5.49 ± 0.23 mg | 10.55 | 4.83 ± 0.32* mg | 21.37 | 3.98 ± 0.21** mg | 35.20 | 38.81% | 49.66 | leakage Spots # [7, 12]: 147; CNV Incidence rate [7, 13]: 45.74%; leakage Spots # [7, 14]: 86; CNV Incidence rate [7, 15]: 42.96%; leakage Spots # [7, 16]: 58; CNV Incidence rate [7, 17]: 38.81%; leakage Spots # [7, 18]: 26
